The values below come from patent publication US20220226322A1, “METHODS OF TREATING VIRALLY ASSOCIATED CANCERS WITH HISTONE DEACETYLASE INHIBITORS” (priority 2019, published 2022).

Structures are written as SMILES.

The conditions of data set [1]: in vivo; cited from earlier work.
In another data set the target is HDAC2 (Homo sapiens, UniProt Q92769). In kind it is biochemical. The conditions noted are these: HDAC2, 10 μM HDAC Substrate 3. Here is the method: (§1) Briefly, all of the compounds are dissolved in DMSO. A series of dilutions of the compounds were prepared with 10% DMSO in HDAC assay buffer and 5 μl of the dilution was added to a 50 μl reaction so that the final concentration of DMSO is 1% in all of reactions. The compounds were pre-incubated in duplicate at RT for 1 hour in a mixture containing HDAC assay buffer, 5 μg BSA, HDAC enzyme (see Table 7) and a the particular HDACi. After 1 hour, the enzymatic reactions were initiated by the addition of HDAC substrate (BPS Bioscience) to a final concentration of 10 μM or 2 μM. The enzymatic reaction proceeded for 30 minutes at 37° C.
Chain of HDAC2 (Q92769 whole entry): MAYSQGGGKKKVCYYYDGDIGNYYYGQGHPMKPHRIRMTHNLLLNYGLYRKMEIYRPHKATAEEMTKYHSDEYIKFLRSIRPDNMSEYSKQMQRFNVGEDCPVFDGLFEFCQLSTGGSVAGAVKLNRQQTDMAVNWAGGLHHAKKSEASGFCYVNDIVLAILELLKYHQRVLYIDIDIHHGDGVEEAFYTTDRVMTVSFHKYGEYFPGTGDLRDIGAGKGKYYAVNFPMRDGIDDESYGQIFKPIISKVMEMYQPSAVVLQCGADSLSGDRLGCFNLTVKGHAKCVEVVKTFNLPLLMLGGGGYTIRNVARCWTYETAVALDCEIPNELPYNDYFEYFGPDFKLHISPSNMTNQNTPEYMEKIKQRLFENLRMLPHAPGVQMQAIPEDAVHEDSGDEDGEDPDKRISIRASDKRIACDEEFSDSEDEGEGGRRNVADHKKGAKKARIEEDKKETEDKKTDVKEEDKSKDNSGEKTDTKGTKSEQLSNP
(§2) HDAC activity assays were performed in duplicates at each concentration. The fluorescent intensity data were analyzed using the computer software, Graphpad Prism. In the absence of the compound, the fluorescent intensity (Ft) in each data set was defined as 100% activity. In the absence of HDAC, the fluorescent intensity (Fb) in each data set was defined as 0% activity. The percent activity in the presence of each compound was calculated according to the following equation: % activity=(F−Fb)/(Ft−Fb), where F=the fluorescent intensity in the presence of the compound. […]

Data set [2] relates to P3HR1 Burkitt's lymphoma cells. Kind of data set: Cell death by 7AAD staining after Nstat, washout, then ganciclovir. The procedure: P3HR1 Burkitt's lymphoma cells were incubated with DMSO (solvent control) or Nstat for 3 days. After that time cell cultures were washed re-fed with ganciclovir (GCV) for an additional 3 days. All test conditions were run in triplicate. Cell death was measured by 7AAD staining.

The nature of data set [3]: Single dose pharmacokinetics of VRx-3996 in patients given oral nanatinostat and valganciclovir. In kind it is in vivo, humans. The note with it: Treatment C = 10 mg VRx-3996 p.o. and 900 mg Valganciclovir p.o., N 4.
For another data set, the target named is T1, HDAC6 (Homo sapiens, UniProt Q9UBN7).
T1 sequence (Q9UBN7 1-1215): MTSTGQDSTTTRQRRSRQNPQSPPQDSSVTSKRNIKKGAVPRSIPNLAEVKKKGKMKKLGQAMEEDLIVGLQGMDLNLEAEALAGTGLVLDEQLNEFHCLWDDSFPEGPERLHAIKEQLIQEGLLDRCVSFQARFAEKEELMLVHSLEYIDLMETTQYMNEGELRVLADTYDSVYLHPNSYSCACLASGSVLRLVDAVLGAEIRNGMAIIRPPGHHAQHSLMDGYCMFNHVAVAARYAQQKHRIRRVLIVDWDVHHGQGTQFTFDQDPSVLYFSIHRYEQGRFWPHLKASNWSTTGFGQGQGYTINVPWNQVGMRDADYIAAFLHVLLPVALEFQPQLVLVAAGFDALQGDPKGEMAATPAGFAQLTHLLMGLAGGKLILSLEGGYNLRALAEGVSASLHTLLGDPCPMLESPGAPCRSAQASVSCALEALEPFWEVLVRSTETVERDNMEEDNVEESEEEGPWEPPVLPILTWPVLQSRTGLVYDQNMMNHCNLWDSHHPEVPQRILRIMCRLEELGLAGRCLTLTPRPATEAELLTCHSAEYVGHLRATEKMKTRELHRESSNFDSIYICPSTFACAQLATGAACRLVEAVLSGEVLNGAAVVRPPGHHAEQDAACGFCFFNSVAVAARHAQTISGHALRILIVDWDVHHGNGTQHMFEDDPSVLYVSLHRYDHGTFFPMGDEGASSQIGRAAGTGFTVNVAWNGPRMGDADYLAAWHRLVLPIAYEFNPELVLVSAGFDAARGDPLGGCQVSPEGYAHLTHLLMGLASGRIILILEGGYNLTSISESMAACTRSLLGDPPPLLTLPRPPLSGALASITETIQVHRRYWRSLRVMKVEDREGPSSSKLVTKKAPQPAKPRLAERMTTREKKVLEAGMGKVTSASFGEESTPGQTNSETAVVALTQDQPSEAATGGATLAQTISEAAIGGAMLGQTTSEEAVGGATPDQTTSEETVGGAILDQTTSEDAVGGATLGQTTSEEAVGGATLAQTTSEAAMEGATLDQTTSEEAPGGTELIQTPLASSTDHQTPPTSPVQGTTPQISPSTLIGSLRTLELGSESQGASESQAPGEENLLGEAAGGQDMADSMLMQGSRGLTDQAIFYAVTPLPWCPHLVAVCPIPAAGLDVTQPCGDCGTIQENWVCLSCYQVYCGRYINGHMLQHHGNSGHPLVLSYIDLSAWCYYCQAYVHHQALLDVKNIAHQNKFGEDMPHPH
The conditions noted are these: HDAC6, 10 μM HDAC Substrate 3. The procedure:
as §1, §2

Data set [4] relates to Histone 3 acetylation in peripheral blood mononuclear cells. Kind of data set: H3 acetylation in peripheral blood mononuclear cells of healthy donors (flow cytometry). In kind it is cell-based, human. The source says: Percentage of cells with H3 acetylation, as determined by flow cytometry, is shown.
Since H3 acetylation is a pharmacodynamic biomarker of Nstat activity, acetylation of H3 was examined in treated cells.

The target in a further data set is HDAC3/NCOR2 (Homo sapiens, UniProt O15379). Kind of data set: HDAC activity assay (fluorescence). The note with it: HDAC3/NCOR2, 10 μM HDAC Substrate 3. In kind it is biochemical. The procedure:
as §1, §2

The target in a further data set is HDAC1 (Homo sapiens, UniProt Q13547). Kind of data set: HDAC activity assay (fluorescence). Format: biochemical. The conditions noted are these: HDAC1, 10 μM HDAC Substrate 3. Here is the method:
as §1, §2

Chain of HDAC1 (Q13547 whole entry): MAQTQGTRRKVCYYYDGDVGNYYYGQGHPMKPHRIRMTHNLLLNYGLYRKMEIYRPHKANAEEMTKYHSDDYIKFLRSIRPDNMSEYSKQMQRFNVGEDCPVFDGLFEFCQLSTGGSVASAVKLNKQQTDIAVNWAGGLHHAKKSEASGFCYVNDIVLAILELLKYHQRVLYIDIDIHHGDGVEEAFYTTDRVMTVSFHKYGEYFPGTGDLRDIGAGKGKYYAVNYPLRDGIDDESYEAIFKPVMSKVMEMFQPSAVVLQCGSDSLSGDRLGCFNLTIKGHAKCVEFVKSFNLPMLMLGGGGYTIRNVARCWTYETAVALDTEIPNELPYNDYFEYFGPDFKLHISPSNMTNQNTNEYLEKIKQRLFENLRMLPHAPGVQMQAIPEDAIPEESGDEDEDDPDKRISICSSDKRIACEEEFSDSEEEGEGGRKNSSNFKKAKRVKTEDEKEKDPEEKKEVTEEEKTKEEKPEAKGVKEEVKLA
Chain of HDAC3/NCOR2 (O15379 whole entry): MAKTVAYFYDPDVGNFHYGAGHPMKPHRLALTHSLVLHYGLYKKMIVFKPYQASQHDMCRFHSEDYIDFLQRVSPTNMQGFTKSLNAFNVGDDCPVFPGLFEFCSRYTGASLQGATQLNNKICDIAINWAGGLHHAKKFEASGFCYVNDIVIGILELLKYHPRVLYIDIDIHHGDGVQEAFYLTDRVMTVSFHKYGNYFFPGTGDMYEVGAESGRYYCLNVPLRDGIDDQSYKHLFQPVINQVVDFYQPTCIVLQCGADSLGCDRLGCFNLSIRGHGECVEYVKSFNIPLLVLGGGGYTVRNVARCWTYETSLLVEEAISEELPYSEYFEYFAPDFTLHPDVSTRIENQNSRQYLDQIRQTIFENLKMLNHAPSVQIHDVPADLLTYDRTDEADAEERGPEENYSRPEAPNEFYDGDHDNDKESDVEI
Chain of HDAC3/NCOR2 (Q9Y618 395-489 partner limits assumed): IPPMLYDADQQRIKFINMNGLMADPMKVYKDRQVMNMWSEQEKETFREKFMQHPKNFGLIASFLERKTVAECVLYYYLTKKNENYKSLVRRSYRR

As for `Nc1ccccc1NC(=O)c1ccc(CNC(=O)OCc2cccnc2)cc1` [MS-275, entinostat], in data set [1], the elimination half-life result is listed as “approximately 36 hours”.
For `O=C(NO)c1cnc(N2C[C@@H]3[C@H](C2)[C@H]3NCc2ccc3cc(F)ccc3n2)nc1` [Nstat, 2-((1R,5S,6s)-6-(((6-fluoroquinolin-2-yl)methyl)amino)-3-azabicyclo[3.1.0]hexan-3-yl)-N-hydroxypyrimidine-5-carboxamide], the 50% inhibitory concentration (IC50) against HDAC2 was found to be 12 nM; at HDAC6, 450 nM; against HDAC3/NCOR2, 12 nM; against HDAC1 it was 3.6 nM. The “increase of cytotoxic activity when combined with Ganciclovir” value in data set [2] is on record as around 40%. Moreover, the “cell cytotoxicity when combined with ganciclovir” value in data set [2] (EBV infected cell line P3HR1, effect seen even after Nstat removal) was “increases cell cytotoxicity”. Moreover, in data set [3], the “AUC, geometric mean” value amounted to 322 ng·h/mL. In addition, the “duration of effect on H3 acetylation” value in data set [4] (PBMC from healthy donors, doses down to 10 nM, FIG. 3) is on record as “long-lasting”. In addition, in data set [4] (PBMC of healthy volunteers, even at a dose of 100 nM, FIG. 2), the “potency in inducing elevated levels of Histone 3 acetylation” value is given as “much more potent than entinostat”.
